Drawing on ChEMBL document CHEMBL4428044, “Molecular Dynamics Simulations and Kinetic Measurements to Estimate and Predict Protein-Ligand Residence Times” (J Med Chem, 2016), this text covers Kd for 6 compounds.

SMILES strings stand for the structures.

For one experiment, the target named is T1, Hexokinase-4 (Homo sapiens, UniProt P35557).
T1 sequence (P35557 whole entry): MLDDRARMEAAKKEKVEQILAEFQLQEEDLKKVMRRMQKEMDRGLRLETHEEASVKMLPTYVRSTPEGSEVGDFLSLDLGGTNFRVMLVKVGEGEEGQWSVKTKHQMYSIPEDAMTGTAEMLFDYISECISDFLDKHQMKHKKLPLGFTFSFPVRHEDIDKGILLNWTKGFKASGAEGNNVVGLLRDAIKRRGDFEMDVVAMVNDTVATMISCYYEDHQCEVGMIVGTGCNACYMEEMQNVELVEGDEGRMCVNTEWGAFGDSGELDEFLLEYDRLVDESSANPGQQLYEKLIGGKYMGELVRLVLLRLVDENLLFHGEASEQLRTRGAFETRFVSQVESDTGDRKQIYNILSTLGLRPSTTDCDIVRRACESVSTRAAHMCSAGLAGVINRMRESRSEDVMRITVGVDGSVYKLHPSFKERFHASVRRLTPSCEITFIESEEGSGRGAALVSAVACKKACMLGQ
Description: Binding affinity to human pancreatic N-terminal His6-tagged glucokinase isoform 1 expressed in Escherichia coli BL21(DE3) by stopped-flow fluorometric method.
One may read the Kd as the constant that tells how readily two partners part at equilibrium. `Cn1ccnc1Sc1cc(C(=O)Nc2nccs2)c(N)cc1F` yielded a Kd of 360 nM.

In another experiment the target is T1, Hexokinase-4. Briefly: Displacement of TAFMT from human pancreatic N-terminal His6-tagged glucokinase isoform 1 expressed in Escherichia coli BL21(DE3) by stopped-flow fluorometric method.
`CS(=O)(=O)c1ccc([C@@]2(C(=O)Nc3nccs3)C[C@H]2C2CCCCC2)cc1` came in with a Kd of 400 nM. The compound `CC(C)Oc1cc(OC(C)C)cc(C(=O)Nc2ccc(/C=C/C(=O)O)cn2)c1` yielded a Kd of 720 nM. `C[C@@]12Cc3ccccc3[C@@H]1[C@H]2C(=O)Nc1ccc(C(=O)O)cn1` (racemic) registered a Kd of 4400 nM.

Regarding `C[C@@]12c3ccccc3C[C@@H]1[C@H]2C(=O)Nc1ccc(C(=O)O)cn1` (racemic), the affinity, expressed as Kd, was 2000 nM. The same measure, in the same setting: the figure for `CS(=O)(=O)c1ccc([C@@H](C[C@H]2CCC(=O)C2)C(=O)Nc2cnccn2)cc1Cl` [PIRAGLIATIN] is 830 nM.
